Consider five compounds from ChEMBL document CHEMBL4834457, “Discovery and optimization of selective RET inhibitors via scaffold hopping” (Bioorg Med Chem Lett, 2021).

Broadly, the IC50 is the concentration at which inhibition is half-maximal. A higher IC50 goes with weaker potency. For orientation: bioavailability means the share of a dose that reaches the circulation, judged against a reference dose that is usually intravenous. What is called Vd is a proportionality between amount in the body and measured concentration, not a real space. The term AUC denotes the area under the concentration-time curve, a measure of exposure. Low values mean low exposure, high ones high exposure. For orientation: clearance means a measure of how efficiently the substance is removed, as volume per time.

Activity calls are given as the source filed them. The calls are words filed in the database; no cut-off is given here. Bounds are passed on as bounds.

Data set [1] is described as follows: Intrinsic clearance in mouse liver microsomes. The class given is ADME, Microsome. The following applies: read-out: CLH.
Data set [2] in a line: Intrinsic clearance in human liver microsomes. The class given is ADME, Microsome. The note with it: read-out: CLH. A general note: Microsomes from liver hold many membrane-bound enzymes, among them those of drug oxidation.
Data set [3] relates to BaF3. Nature of the data set: Antiproliferative activity against mouse KIF5B-RET BaF3 cells by cell based assay. The class given is functional.
Data set [4] in a line: Oral bioavailability in mouse. The following applies: in vivo. The class given is ADME, organism-based.
Data set [5] can be described thus: Toxicity in mouse transplanted with mouse KIF5B-RET Ba/F3 cells assessed as change in body weight at 10 mg/kg, po […] for 10 days relative to control. The class given is organism-based, BaF3. The note with it: in vivo, 240 h, time 10 day.
The nature of data set [6]: Volume of distribution in mouse. The class given is ADME, organism-based. The note with it: in vivo.
Data set [7] in a line: Drug level in plasma of mouse transplanted with mouse KIF5B-RET Ba/F3 cells at 10 mg/kg, po qd for 10 days measured after 8.5 hrs. The note with it: time 10 day. The class given is ADME, organism-based, BaF3.
The nature of data set [8]: Drug level in tumor of mouse transplanted with mouse KIF5B-RET Ba/F3 cells at 10 mg/kg, po qd for 10 days measured after 8.5 hrs. The class given is ADME, organism-based, Neoplasm, BaF3. The following applies: in vivo, 240 h, time 10 day.
Data set [9] can be described thus: AUC in mouse plasma at 10 mg/kg, po. The class given is ADME, organism-based. More on the design: dose 10 mg/kg.
Data set [10] relates to BaF3. Nature of the data set: Antitumor activity against mouse KIF5B-RET BaF3 cells xenografted in nu/nu mouse assessed as tumour growth inhibition at 10 mg/kg, po qd for 10 days. The class given is functional, organism-based. The note with it: time 10.0 day.
Data set [11] in a line: Clearance in mouse. The class given is ADME, organism-based. The following applies: in vivo.
In data set [12] the target is Tyrosine-protein kinase JAK2 (Homo sapiens, UniProt O60674). Nature of the data set: Inhibition of JAK2 (unknown origin).
Data set [13] deals with T1, Receptor-type tyrosine-protein kinase FLT3 (Homo sapiens, UniProt P36888).
T1 sequence (P36888 whole entry): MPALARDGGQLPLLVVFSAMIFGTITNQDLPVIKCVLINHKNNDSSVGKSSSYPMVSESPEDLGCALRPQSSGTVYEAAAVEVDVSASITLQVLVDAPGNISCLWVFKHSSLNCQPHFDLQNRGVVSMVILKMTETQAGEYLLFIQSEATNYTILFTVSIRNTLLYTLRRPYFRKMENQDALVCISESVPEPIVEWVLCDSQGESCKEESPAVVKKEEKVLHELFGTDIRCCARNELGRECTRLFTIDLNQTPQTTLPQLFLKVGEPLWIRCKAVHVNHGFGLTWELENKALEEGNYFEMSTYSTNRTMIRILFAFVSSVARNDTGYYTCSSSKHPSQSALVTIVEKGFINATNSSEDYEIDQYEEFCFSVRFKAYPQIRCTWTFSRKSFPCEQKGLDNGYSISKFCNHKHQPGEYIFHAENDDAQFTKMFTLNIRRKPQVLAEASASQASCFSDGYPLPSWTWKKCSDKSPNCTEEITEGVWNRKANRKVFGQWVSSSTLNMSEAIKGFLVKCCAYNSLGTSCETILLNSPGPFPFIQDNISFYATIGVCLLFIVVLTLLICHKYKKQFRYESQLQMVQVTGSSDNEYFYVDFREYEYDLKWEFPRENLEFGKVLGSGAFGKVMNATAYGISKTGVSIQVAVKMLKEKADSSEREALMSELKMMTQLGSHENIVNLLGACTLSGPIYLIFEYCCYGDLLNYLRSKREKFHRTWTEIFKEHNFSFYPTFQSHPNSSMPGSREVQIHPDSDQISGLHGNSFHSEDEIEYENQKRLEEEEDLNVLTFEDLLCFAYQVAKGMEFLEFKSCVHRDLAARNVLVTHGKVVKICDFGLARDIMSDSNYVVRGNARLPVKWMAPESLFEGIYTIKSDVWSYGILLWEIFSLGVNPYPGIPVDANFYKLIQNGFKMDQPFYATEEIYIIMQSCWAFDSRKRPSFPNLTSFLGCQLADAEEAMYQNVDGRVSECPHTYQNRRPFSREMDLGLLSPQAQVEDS
Nature of the data set: Inhibition of FLT3 (unknown origin).

Data set [14] can be described thus: Toxicity in mouse transplanted with mouse KIF5B-RET Ba/F3 cells assessed as change in body weight at 20 mg/kg, po […] for 10 days relative to control. The note with it: in vivo, 240 h, time 10 day. The class given is organism-based, BaF3.
Data set [15] concerns the target Proto-oncogene tyrosine-protein kinase receptor Ret (Homo sapiens, UniProt P07949, M918T). Nature of the data set: Inhibition of RET M918T mutant (unknown origin).
Data set [16] relates to BaF3. The experiment in a line: Antitumor activity against mouse KIF5B-RET BaF3 cells xenografted in nu/nu mouse assessed as tumour growth inhibition at 20 mg/kg, po qd for 10 days. The class given is functional, organism-based. The following applies: time 10.0 day.
Data set [17] addresses Proto-oncogene tyrosine-protein kinase receptor Ret (Homo sapiens, UniProt P07949). Nature of the data set: Inhibition of RET wild type (unknown origin).
The target of data set [18] is Proto-oncogene tyrosine-protein kinase receptor Ret (Homo sapiens, UniProt P07949, V804M). The experiment in a line: Inhibition of RET V804M mutant (unknown origin).
Sequence of Proto-oncogene tyrosine-protein kinase receptor Ret (Homo sapiens, UniProt P07949, V804M) (P07949 29-1114 V804M limits assumed): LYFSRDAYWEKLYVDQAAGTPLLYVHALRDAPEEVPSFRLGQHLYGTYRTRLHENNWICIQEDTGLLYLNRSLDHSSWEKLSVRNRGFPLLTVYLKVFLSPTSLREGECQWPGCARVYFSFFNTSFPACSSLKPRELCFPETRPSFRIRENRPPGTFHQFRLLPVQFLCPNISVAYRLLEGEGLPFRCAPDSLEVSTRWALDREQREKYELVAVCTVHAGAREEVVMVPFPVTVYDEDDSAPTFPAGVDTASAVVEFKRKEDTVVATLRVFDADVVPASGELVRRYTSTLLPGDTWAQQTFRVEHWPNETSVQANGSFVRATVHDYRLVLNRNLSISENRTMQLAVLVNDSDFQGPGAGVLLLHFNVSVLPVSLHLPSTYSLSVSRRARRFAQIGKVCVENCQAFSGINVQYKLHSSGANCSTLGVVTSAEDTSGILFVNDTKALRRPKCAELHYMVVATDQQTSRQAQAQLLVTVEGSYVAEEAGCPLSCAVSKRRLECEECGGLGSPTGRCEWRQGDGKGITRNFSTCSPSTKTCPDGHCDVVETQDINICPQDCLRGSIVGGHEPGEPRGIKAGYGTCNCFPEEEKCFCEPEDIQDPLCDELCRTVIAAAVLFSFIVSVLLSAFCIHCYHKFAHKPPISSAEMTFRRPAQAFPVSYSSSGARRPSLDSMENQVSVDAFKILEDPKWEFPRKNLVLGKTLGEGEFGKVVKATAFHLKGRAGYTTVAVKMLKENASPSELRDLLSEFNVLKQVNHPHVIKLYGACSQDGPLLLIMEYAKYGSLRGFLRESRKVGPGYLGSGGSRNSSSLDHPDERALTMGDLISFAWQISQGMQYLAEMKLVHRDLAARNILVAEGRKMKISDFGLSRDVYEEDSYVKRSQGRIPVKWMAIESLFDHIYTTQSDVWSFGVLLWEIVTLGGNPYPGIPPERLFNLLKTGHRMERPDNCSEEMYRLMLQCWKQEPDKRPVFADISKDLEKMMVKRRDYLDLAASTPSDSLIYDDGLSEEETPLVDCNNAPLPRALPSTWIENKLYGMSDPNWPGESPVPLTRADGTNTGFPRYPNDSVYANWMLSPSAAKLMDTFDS

Sequence of Tyrosine-protein kinase JAK2 (O60674 whole entry): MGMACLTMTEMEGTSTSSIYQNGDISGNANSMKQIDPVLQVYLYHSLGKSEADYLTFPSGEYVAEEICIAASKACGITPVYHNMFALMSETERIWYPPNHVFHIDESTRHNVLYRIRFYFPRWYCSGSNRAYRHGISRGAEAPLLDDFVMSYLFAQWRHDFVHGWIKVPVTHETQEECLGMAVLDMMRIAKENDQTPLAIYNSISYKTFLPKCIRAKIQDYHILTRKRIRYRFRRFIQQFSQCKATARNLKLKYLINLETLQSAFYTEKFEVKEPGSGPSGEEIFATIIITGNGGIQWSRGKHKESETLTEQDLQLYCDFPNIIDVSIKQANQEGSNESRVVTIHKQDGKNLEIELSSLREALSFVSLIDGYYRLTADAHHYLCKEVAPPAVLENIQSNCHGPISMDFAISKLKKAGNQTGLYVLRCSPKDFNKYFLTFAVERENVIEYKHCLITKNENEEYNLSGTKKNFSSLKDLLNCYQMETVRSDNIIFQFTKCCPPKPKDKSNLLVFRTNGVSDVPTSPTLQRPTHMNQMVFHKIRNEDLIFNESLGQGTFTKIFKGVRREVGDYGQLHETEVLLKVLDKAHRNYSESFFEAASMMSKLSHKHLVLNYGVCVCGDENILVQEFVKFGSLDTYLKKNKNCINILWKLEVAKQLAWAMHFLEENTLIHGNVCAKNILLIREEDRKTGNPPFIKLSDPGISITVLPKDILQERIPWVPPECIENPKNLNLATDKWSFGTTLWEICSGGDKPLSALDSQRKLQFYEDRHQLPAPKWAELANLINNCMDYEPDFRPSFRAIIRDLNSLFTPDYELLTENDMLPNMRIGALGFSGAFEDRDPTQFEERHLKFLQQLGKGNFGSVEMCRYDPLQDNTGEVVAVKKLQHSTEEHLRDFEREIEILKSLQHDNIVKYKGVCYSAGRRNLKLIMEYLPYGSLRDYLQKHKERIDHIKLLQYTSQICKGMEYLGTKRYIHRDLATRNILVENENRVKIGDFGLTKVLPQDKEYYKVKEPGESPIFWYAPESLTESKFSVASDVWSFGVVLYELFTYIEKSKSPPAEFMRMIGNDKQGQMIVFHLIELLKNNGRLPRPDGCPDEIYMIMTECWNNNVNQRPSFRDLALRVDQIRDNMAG
Sequence of Proto-oncogene tyrosine-protein kinase receptor Ret (Homo sapiens, UniProt P07949) (P07949 whole entry): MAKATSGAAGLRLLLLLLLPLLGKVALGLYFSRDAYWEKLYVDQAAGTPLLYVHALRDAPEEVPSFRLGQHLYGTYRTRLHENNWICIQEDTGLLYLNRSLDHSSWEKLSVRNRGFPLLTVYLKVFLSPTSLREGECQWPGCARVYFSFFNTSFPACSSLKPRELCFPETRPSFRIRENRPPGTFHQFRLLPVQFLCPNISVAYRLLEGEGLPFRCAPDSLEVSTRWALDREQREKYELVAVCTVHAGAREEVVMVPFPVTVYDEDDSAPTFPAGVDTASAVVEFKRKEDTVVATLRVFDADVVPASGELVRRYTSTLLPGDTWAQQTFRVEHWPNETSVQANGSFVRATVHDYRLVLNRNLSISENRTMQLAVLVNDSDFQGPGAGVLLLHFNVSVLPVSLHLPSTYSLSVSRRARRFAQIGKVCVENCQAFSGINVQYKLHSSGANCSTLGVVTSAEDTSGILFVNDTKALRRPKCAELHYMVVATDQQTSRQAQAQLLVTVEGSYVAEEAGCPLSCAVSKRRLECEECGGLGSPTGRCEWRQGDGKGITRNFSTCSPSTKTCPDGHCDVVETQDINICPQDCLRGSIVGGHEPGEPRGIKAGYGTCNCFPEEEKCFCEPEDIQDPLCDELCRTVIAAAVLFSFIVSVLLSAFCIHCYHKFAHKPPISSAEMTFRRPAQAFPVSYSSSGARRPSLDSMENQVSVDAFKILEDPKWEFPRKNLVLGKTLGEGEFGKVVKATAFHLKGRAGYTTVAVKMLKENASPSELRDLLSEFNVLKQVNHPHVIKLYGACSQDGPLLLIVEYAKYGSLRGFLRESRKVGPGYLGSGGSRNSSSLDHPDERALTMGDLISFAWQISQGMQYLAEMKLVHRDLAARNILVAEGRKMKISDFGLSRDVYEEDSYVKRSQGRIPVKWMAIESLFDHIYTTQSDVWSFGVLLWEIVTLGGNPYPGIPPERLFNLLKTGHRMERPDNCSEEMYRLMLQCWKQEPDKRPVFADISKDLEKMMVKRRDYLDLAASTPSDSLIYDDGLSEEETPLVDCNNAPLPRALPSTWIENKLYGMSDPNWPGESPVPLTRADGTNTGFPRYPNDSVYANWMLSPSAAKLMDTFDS
Sequence of Proto-oncogene tyrosine-protein kinase receptor Ret (Homo sapiens, UniProt P07949, M918T) (P07949 29-1114 M918T limits assumed): as the sequence (P07949 29-1114 V804M limits assumed) above, with M776V, M890T counted along it

As to `Cc1cc(Nc2cc(C)[nH]n2)nc(N2CCC3(CCCN([C@@H](C)c4cnc(-n5cc(F)cn5)cn4)C3=O)CC2)n1`, the CLint scaled in [1] was found to be 136 mL/min/kg; in data set [2], 31.3 mL/min/kg. In the data set with BaF3 [3], this compound yielded an IC50 of 19 nM.

For the compound `Cc1cc(Nc2cc(C)[nH]n2)nc(C2CCC3(CCCN([C@@H](C)c4ccc(-n5cc(F)cn5)nc4)C3=O)CC2)n1` (some centres undefined), the results for the CLint scaled in data set [1] and in [2] were less than 38 mL/min/kg and less than 8.6 mL/min/kg, respectively.

Regarding `CO[C@]1(C(=O)N[C@@H](C)c2ccc(-n3cc(F)cn3)nc2)CC[C@H](c2nc(C)cc(Nc3cc(C)[nH]n3)n2)CC1` [PRALSETINIB], the bioavailability in [4] turned out to be 77.2%. The Activity result in data set [5] is on record as “Non-Toxic”. Also, the CLint scaled in data set [1] is less than 38 mL/min/kg; in data set [2], less than 8.6 mL/min/kg. In data set [6], this compound showed a Vd of 0.7 L/kg. This compound showed a concentration at 240 h in [7] of 6.32 µM. The same compound displayed a Drug uptake in data set [8] of 2522 nmol/kg. Besides, the AUC in data set [9] was found to be 46.1 µM·h. Moreover, the figures for the IC50 (in the data set on BaF3 [3]; in [12]; in data set [13]) were 17 nM, 2 nM and 6.5 nM, respectively. The result with BaF3 [10] was Active. Moreover, the clearance in data set [11] was found to be 5 mL/min/kg.

On to `Cc1cc(Nc2cc(C)[nH]n2)nc(N2CCC3(CCCN([C@@H](C)c4ccc(-n5cc(F)cn5)nc4)C3=O)CC2)n1`, for which the CLint scaled in [1] was found to be 155 mL/min/kg; in [2], 36.4 mL/min/kg. For the same compound, the IC50 with BaF3 [3] turned out to be 14 nM.

For the compound `Cc1cc(Nc2cc(C)[nH]n2)nc(N2CCC3(CC2)OCCN([C@@H](C)c2ccc(-n4cc(F)cn4)nc2)C3=O)n1`, the Activity result in [14] and in [5] was “Non-Toxic” in each case. This compound registered a bioavailability in [4] of 59.7%. The CLint scaled in data set [1] was found to be 79 mL/min/kg; in data set [2], 24.1 mL/min/kg. This compound also gave a Vd in [6] of 1.5 L/kg. In [7], this compound had a concentration at 240 h of 3.94 µM. In data set [8], this compound came in with a Drug uptake of 8100 nmol/kg. Besides, the AUC in [9] came out at 27.7 µM·h. For the same compound, the IC50 is 0.9 nM in data set [15]; 19 nM in the data set with BaF3 [3]; 1.29 nM in data set [17]; 4.4 nM in data set [12]; 30.8 nM in data set [13]; 1.97 nM in [18]. Also, the result with BaF3 [16] and in the data set with BaF3 [10] was Active. In data set [11], the clearance was 6.6 mL/min/kg.
